The text below walks through data of patent EP2487157A1, “Enantioselective synthesis method of 4-aminoalcoholquinoline derivatives and the use” (Université de Picardie Jules Verne, priority 2011, dated 2012).

In experiment [1] the test system is Sierra Leone and Indochina P. falciparum strains. The note with it: ratio of IC50 values against Sierra Leone and Indochina P. falciparum strains; cited from earlier work.
The test system of another experiment is CNS adenosine receptors. Conditions: result in words, from literature; cited from earlier work.
For experiment [2], the system named is Plasmodium falciparum chloroquine resistant (W2). In words: Antimalarial test, tritiated hypoxanthine incorporation, chloroquine resistant clone W2. It counts as cell-based. Conditions: W2 clone, chloroquine resistant, 1 parasitic cycle (45h), bracket = uncertainty in %, read-out: 50% inhibitory concentration followed by uncertainty about the value expressed in percentage. As for the experimental part:
(§1) Screenings of the compound according to the present invention (1f, 1h, 1i) and their isomers (1a, 1c, 1d)on strains of Plasmodium falciparum sensitive (3D7) and chloroquine resistant (W2) were realized.
(§2) The Clones of W2 and 3D7 were grown. […] Melfloquine (MQ) at the same concentrations and chloroquine (CQ) at the concentrations adapted to each clone were used as the Controls. 8 negative controls were distributed on each plate.
(§3) Then, the molecules to be tested were diluted extemporaneously in the above preparation of the plates. The growth medium was deposited after drying plates. The study was initiated when the growth medium was at the ring stage and then stopped after 1 parasitic cycle (45h).
(§4) The activity was calculated by using the Pk-Fit software on all the experimental points obtained for each molecule (except the highest concentration). The results shown in table 5 are expressed in nM and correspond to calculate a 50% inhibitory concentration followed by un certainty about the value expressed in percentage. Table 5. The biological effect of the compounds on Plasmodium falciparum

For experiment [3], the system named is Plasmodium falciparum sensitive (3D7). The experiment in a line: Antimalarial test, tritiated hypoxanthine incorporation, sensitive clone 3D7. It counts as cell-based. The note with it: 3D7 clone, sensitive, 1 parasitic cycle (45h), bracket = uncertainty in %, read-out: 50% inhibitory concentration followed by uncertainty about the value expressed in percentage. As for the experimental part: as §1, §2, §3, §4

Another experiment concerns E. coli DSM 1103. In words: Antibacterial test, MIC by CLSI broth dilution. The note with it: 18 to 24 h at 37°C, Mueller-Hinton. It counts as cell-based. As for the experimental part:
(§5) The minimum inhibitory concentrations (MICs) were determined according to the recommendations of the Clinical and Laboratory Standards Institute (CLSI)^[27]. […] After incubation for 18 to 24 h (48 h for Enterococcus faecalis) at 37°C, the MIC was determined as the product concentration of the first well with no visual signs of bacterial growth (no disorder in the well). […] Table6. The antibacterial effects of the compounds
A general note: Dilution methods test growth across graded concentrations, often in twofold steps.

Another experiment has as its system P. aeruginosa DSM 1117. The experiment in a line: Antibacterial test, MIC by CLSI broth dilution. Format: cell-based. The note with it: 18 to 24 h at 37°C, Mueller-Hinton. The protocol: as §5
Another experiment has as its system S. aureus CIP 103429. In words: Antibacterial test, MIC by CLSI broth dilution. Format: cell-based. Conditions: 18 to 24 h at 37°C, Mueller-Hinton. As for the experimental part:
as §5

The test system of another experiment is E. faecalis CIP 103214. In words: Antibacterial test, MIC by CLSI broth dilution. Format: cell-based, Enterococcus faecalis. The note with it: 48 h at 37°C, Mueller-Hinton. As for the experimental part: as §5
In the next experiment the test system is SAAM 12. The experiment in a line: Antibacterial test, MIC by CLSI broth dilution. It counts as cell-based, Staphylococcus aureus. The note with it: SAAM 12, clinical strain resistant to methicillin; 18 to 24 h at 37°C. The protocol: as §5
The test system of a further experiment is SAAM 27. The experiment in a line: Antibacterial test, MIC by CLSI broth dilution. Format: cell-based, Staphylococcus aureus. Conditions: SAAM 27, clinical strain resistant to methicillin; 18 to 24 h at 37°C. As for the experimental part: as §5
Another experiment has as its system SAAM 51. The experiment in a line: Antibacterial test, MIC by CLSI broth dilution. Format: cell-based, Staphylococcus aureus. Conditions: SAAM 51, clinical strain resistant to methicillin; 18 to 24 h at 37°C. As for the experimental part: as §5
A further experiment has as its system SAAM 64. The experiment in a line: Antibacterial test, MIC by CLSI broth dilution. Format: cell-based, Staphylococcus aureus. Conditions: SAAM 64, clinical strain resistant to methicillin; 18 to 24 h at 37°C. The protocol:
as §5

Another experiment has as its system SAAM 69. The experiment in a line: Antibacterial test, MIC by CLSI broth dilution. It counts as cell-based, Staphylococcus aureus. The note with it: SAAM 69, clinical strain resistant to methicillin; 18 to 24 h at 37°C. As for the experimental part: as §5
A further experiment deals with SAAM 86. The experiment in a line: Antibacterial test, MIC by CLSI broth dilution. It counts as cell-based, Staphylococcus aureus. Conditions: SAAM 86, clinical strain resistant to methicillin; 18 to 24 h at 37°C. The protocol:
as §5

A further experiment concerns SAAM 95. In words: Antibacterial test, MIC by CLSI broth dilution. Format: cell-based, Staphylococcus aureus. Conditions: SAAM 95, clinical strain resistant to methicillin; 18 to 24 h at 37°C. The protocol: as §5
The test system of a further experiment is SAAM 98. In words: Antibacterial test, MIC by CLSI broth dilution. Format: cell-based, Staphylococcus aureus. Conditions: SAAM 98, clinical strain resistant to methicillin; 18 to 24 h at 37°C. As for the experimental part: as §5

≈ marks a conversion by molar mass, not a printed value.

`O[C@H](c1cc(C(F)(F)F)nc2c(C(F)(F)F)cccc12)[C@@H]1CCCCN1` (single isomer, unassigned) [(+)-enantiomer of the mefloquine]: the “more potent than the (-)-enantiomer by a factor” value in [1] is recorded as 1.69. In addition, the “binding to CNS adenosine receptors” value in the experiment with CNS adenosine receptors was “without significant activity”.
As for `O[C@@H](c1cc(C(F)(F)F)nc2c(C(F)(F)F)cccc12)[C@H]1CCCCN1` (single isomer, unassigned) [(-)-enantiomer of mefloquine], the “binding to CNS adenosine receptors” value in the experiment on CNS adenosine receptors is “binds to CNS adenosine receptors”.
For the compound `CCCCCCNC[C@H](O)c1cc(C(F)(F)F)nc2c(C(F)(F)F)cccc12` [Compound 1d, (R)-1-(2,8-bis(trifluoromethyl)quinolin-4-yl)-2-(hexylamino)ethanol], the IC50 in [2] turned out to be 142 nM; in experiment [3], 205 nM. The “minimum inhibitory concentrations (MICs)” value in the experiment with E. coli DSM 1103 is 16 µg/mL (≈ 39.2 µM); in the experiment with P. aeruginosa DSM 1117 it was greater than 128 µg/mL; in the experiment with S. aureus CIP 103429, 4 to 8 µg/mL; in the experiment with E. faecalis CIP 103214 it was 4 to 8 µg/mL; in the experiment on SAAM 12, 4 µg/mL (≈ 9.79 µM); in the experiment with SAAM 27, 4 µg/mL (≈ 9.79 µM). In addition, the “minimum inhibitory concentrations (MICs)” value in the experiment with SAAM 51, in the experiment on SAAM 64, with SAAM 69, with SAAM 86, in the experiment on SAAM 95 and in the experiment on SAAM 98 was 4 µg/mL (≈ 9.79 µM) in each case.
As to `O[C@H](CNCc1ccccc1)c1cc(C(F)(F)F)nc2c(C(F)(F)F)cccc12` [Compound 1f, (S)-2-(benzylamino)-1-(2,8-bis(trifluoromethyl)quinolin-4-yl)ethanol], the IC50 in [2] stood at 19.1 nM; in [3] it was 35.1 nM. In addition, the “minimum inhibitory concentrations (MICs)” value with E. coli DSM 1103 was greater than 128 µg/mL; in the experiment on P. aeruginosa DSM 1117, greater than 128 µg/mL; in the experiment on S. aureus CIP 103429, 4 to 8 µg/mL; with E. faecalis CIP 103214, 8 µg/mL (≈ 19.3 µM); in the experiment with SAAM 12, 4 µg/mL (≈ 9.65 µM); in the experiment on SAAM 27, 4 µg/mL (≈ 9.65 µM). Further, the “minimum inhibitory concentrations (MICs)” value is 4 µg/mL (≈ 9.65 µM) in the experiment with SAAM 51; greater than 128 µg/mL in the experiment with SAAM 64; 8 µg/mL (≈ 19.3 µM) with SAAM 69; 8 µg/mL (≈ 19.3 µM) with SAAM 86; 4 µg/mL (≈ 9.65 µM) in the experiment on SAAM 95; 8 µg/mL (≈ 19.3 µM) with SAAM 98.
With `CCCCCNC[C@@H](O)c1cc(C(F)(F)F)nc2c(C(F)(F)F)cccc12` [Compound 1h, (S)-1-(2,8-bis(trifluoromethyl)quinolin-4-yl)-2-(pentylamino)ethanol], the IC50 in experiment [2] worked out at 6.98 nM; in experiment [3] it was 8.33 nM. Also, the “minimum inhibitory concentrations (MICs)” value in the experiment on E. coli DSM 1103 is 16 µg/mL (≈ 40.6 µM); in the experiment on P. aeruginosa DSM 1117, greater than 128 µg/mL; in the experiment with S. aureus CIP 103429, 16 to 32 µg/mL; in the experiment on E. faecalis CIP 103214, 16 to 32 µg/mL; in the experiment with SAAM 12, 8 µg/mL (≈ 20.3 µM); in the experiment on SAAM 27, 8 µg/mL (≈ 20.3 µM). The “minimum inhibitory concentrations (MICs)” value was 8 µg/mL (≈ 20.3 µM) in the experiment on SAAM 51; 16 µg/mL (≈ 40.6 µM) in the experiment on SAAM 64; 8 µg/mL (≈ 20.3 µM) in the experiment on SAAM 69; 16 µg/mL (≈ 40.6 µM) with SAAM 86; 8 µg/mL (≈ 20.3 µM) in the experiment with SAAM 95; 16 µg/mL (≈ 40.6 µM) in the experiment on SAAM 98.
On to `CCCCCCNC[C@@H](O)c1cc(C(F)(F)F)nc2c(C(F)(F)F)cccc12` [Compound 1i, (S)-1-(2,8-bis(trifluoromethyl)quinolin-4-yl)-2-(hexylamino)ethanol], for which the IC50 was 9.4 nM in experiment [2] and 14.5 nM in experiment [3]. The “minimum inhibitory concentrations (MICs)” value was greater than 128 µg/mL with E. coli DSM 1103; greater than 128 µg/mL with P. aeruginosa DSM 1117; 4 to 8 µg/mL with S. aureus CIP 103429; 4 to 8 µg/mL in the experiment on E. faecalis CIP 103214; 2 µg/mL (≈ 4.9 µM) in the experiment with SAAM 12; 2 µg/mL (≈ 4.9 µM) in the experiment with SAAM 27. Also, the “minimum inhibitory concentrations (MICs)” value with SAAM 51 amounted to 2 µg/mL (≈ 4.9 µM); with SAAM 64, 4 µg/mL (≈ 9.79 µM); with SAAM 69 it was 4 µg/mL (≈ 9.79 µM); with SAAM 86 it was 8 µg/mL (≈ 19.6 µM); in the experiment on SAAM 95, 2 µg/mL (≈ 4.9 µM); with SAAM 98, 8 µg/mL (≈ 19.6 µM).
